Consider seven compounds from PubChem BioAssay (NCI).

Values joined by “and” are separate entries in the source; they are usually repeats but may differ in a detail not shown here. Equal entries are not always repeated.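 These data come from cells grown in 96-well plates and exposed to compound for 48 hours at five concentrations. GI50 = concentration required for 50% inhibition of growth. TGI denotes the concentration required for complete inhibition of growth.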 *1 amine or outer side, *2 acyl side, *3 side chain or, on linkers, in order; H or OH if unused. Where a SMILES comes first, the peptide text is derived from it. Bridges are numbered along the chain shown (N, C = ends). Roman numbers before positions name the chains, in order. [ ]: non-standard residue; d: D form. Actinocin(9to1) = Cc1c2oc3c(C)ccc(C(=O)[*:1])c3nc-2c(C(=O)[*:2])c(N)c1=O; NMeT = CN[CH](C(=O)O)[CH](C)O; Sar = CNCC(=O)O

Among the test systems are NCI-H522 lung; 786-0 renal; MDA-MB-435; HL-60(TB) leukemia; OVCAR-3 ovarian; PC-3 prostate; TK-10 renal; SF-295 CNS; MALME-3M melanoma; MDA-MB-231 breast.
Experiment in all cases: inhibition of tumour cell growth, NCI panel, 48 h

In the case of `C=C(CN1CCN(c2cccc(C(F)(F)F)n2)CC1)c1ccc(C(=O)Nc2ccccc2N)cc1`, the GI50 was 1.11 µM and 0.896 µM in the experiment with NCI-H522 lung; 1.97 µM and 0.705 µM with 786-0 renal; 0.27 µM and 0.205 µM in the experiment on MDA-MB-435; 0.322 µM and 0.297 µM with HL-60(TB) leukemia; 0.258 µM and 0.261 µM in the experiment on OVCAR-3 ovarian; 0.42 µM and 0.484 µM in the experiment on PC-3 prostate. The GI50 is 0.387 µM and 0.191 µM in the experiment on SF-295 CNS; 1.06 µM and 0.338 µM with MALME-3M melanoma; 4.63 µM and 1.02 µM in the experiment on MDA-MB-231 breast. Also, the TGI was > 100 µM and 38.1 µM in the experiment with NCI-H522 lung; 70 µM and 14 µM with 786-0 renal; 2.26 µM and 0.767 µM in the experiment on MDA-MB-435; 1 µM and 2.13 µM with HL-60(TB) leukemia; 1.12 µM and 0.982 µM in the experiment with OVCAR-3 ovarian; above 100 µM with PC-3 prostate. Moreover, the TGI in the experiment with TK-10 renal is > 100 µM and 35.4 µM; with MALME-3M melanoma it was > 100 µM and 28.2 µM; in the experiment on MDA-MB-231 breast, 34.2 µM and > 72.7 µM.

For `COc1cc2c(cc1OC)-c1ccc3cc4c(cc3c1N(CCCn1ccnc1)C2)OCO4`, the GI50 with NCI-H522 lung is 0.565 µM; in the experiment on 786-0 renal it was 6.04 µM; in the experiment with MDA-MB-435, 4.35 µM; in the experiment with HL-60(TB) leukemia, 1.92 µM; with OVCAR-3 ovarian it was 2.26 µM; in the experiment on PC-3 prostate, 4.18 µM. The GI50 was 25.2 µM in the experiment with TK-10 renal, 2.8 µM in the experiment with SF-295 CNS, 2.68 µM in the experiment with MALME-3M melanoma and 3.34 µM in the experiment on MDA-MB-231 breast. Further, the TGI in the experiment with NCI-H522 lung stood at 3.35 µM; in the experiment on 786-0 renal it was 32.8 µM; in the experiment on MDA-MB-435, 16.8 µM; in the experiment with HL-60(TB) leukemia, 5.71 µM; in the experiment on OVCAR-3 ovarian, 5.97 µM; in the experiment with PC-3 prostate, 36.7 µM. Moreover, the TGI in the experiment on TK-10 renal worked out at 60.5 µM; in the experiment with SF-295 CNS it was 75.6 µM; in the experiment with MALME-3M melanoma it was 10.7 µM; with MDA-MB-231 breast it was 18.8 µM.

As for `CCN(Cc1ccccc1)c1ccc(CO)c(Cl)c1`, the GI50 is 17.4 µM in the experiment on NCI-H522 lung; 12 µM in the experiment with 786-0 renal; 21.4 µM in the experiment with MDA-MB-435; 11.1 µM in the experiment with HL-60(TB) leukemia; 0.658 µM in the experiment with OVCAR-3 ovarian; 18.2 µM with PC-3 prostate. Further, the GI50 in the experiment on TK-10 renal is 0.0649 µM; in the experiment on SF-295 CNS, 1 µM; in the experiment on MALME-3M melanoma, 28.6 µM; in the experiment with MDA-MB-231 breast, 21.2 µM. Besides, the TGI with NCI-H522 lung was 63.4 µM; in the experiment on 786-0 renal, 39.3 µM; in the experiment on MDA-MB-435, 77.8 µM; with HL-60(TB) leukemia, 46.7 µM; in the experiment with OVCAR-3 ovarian, 3.62 µM; in the experiment with PC-3 prostate, above 53.6 µM. For the same compound, the TGI in the experiment on TK-10 renal is 0.281 µM; in the experiment with SF-295 CNS it was above 56 µM; in the experiment with MALME-3M melanoma, above 82.6 µM; with MDA-MB-231 breast, above 100 µM.

As to `Cc1ccc2c(-c3ccnc(Nc4ccccc4)n3)c(-c3ccc(F)cc3)nn2n1`, the GI50 in the experiment on NCI-H522 lung was 4.34 µM; in the experiment on 786-0 renal it was 4.84 µM; with MDA-MB-435 it was 6.83 µM; with HL-60(TB) leukemia, 9.56 µM; in the experiment with OVCAR-3 ovarian, 4.98 µM; in the experiment on PC-3 prostate, 9.97 µM. In addition, the GI50 in the experiment with TK-10 renal is 1.62 µM; in the experiment with SF-295 CNS, 11.3 µM; in the experiment on MALME-3M melanoma, 13.9 µM; in the experiment with MDA-MB-231 breast, 8.25 µM. For the same compound, the TGI in the experiment on NCI-H522 lung was 13.9 µM; in the experiment with 786-0 renal, 20.8 µM; in the experiment with MDA-MB-435, above 25 µM; in the experiment with HL-60(TB) leukemia, above 25 µM; in the experiment on OVCAR-3 ovarian, above 22.8 µM; with PC-3 prostate it was above 25 µM. In addition, the TGI with TK-10 renal is 10.8 µM; in the experiment on SF-295 CNS, above 25 µM; in the experiment on MALME-3M melanoma, above 25 µM; in the experiment with MDA-MB-231 breast, above 25 µM.

On to `Cc1c2oc3c(C)ccc(C(=O)NC4C(=O)NC(C(C)C)C(=O)N5CCCC5C(=O)N(C)CC(=O)N(C)C(C(C)O)C(=O)OC4C)c3nc-2c(C(=O)NC2C(=O)NC(C(C)C)C(=O)N3CCCC3C(=O)N(C)CC(=O)N(C)C(C(C)O)C(=O)OC2C)c(N)c1=O` (stereo unspecified) (I: TVP[Sar][NMeT] / II: TVP[Sar][NMeT]; ester I:1-I:C, II:1-II:C; linker I:N-II:N via Actinocin(9to1); configuration not given here), for which the TGI is 1.53 µM and > 1 µM in the experiment on NCI-H522 lung; above 100 µM in the experiment on 786-0 renal; 21 µM and > 1 µM in the experiment with MDA-MB-435; 28.1 µM and > 1 µM in the experiment on HL-60(TB) leukemia; 16.6 µM and > 1 µM in the experiment on OVCAR-3 ovarian; above 100 µM in the experiment with PC-3 prostate. In addition, the TGI in the experiment with TK-10 renal is above 28.8 µM; in the experiment on SF-295 CNS it was above 100 µM; with MALME-3M melanoma it was 6.05 µM and > 1 µM; in the experiment with MDA-MB-231 breast, above 69.9 µM. Further, the GI50 was 1.25 µM and 0.61 µM in the experiment with 786-0 renal; 2.11 µM and > 1 µM in the experiment on MDA-MB-435; 3 µM and > 1 µM in the experiment on HL-60(TB) leukemia; 2.23 µM and > 1 µM in the experiment on OVCAR-3 ovarian; 2.99 µM and > 1 µM in the experiment with PC-3 prostate; 4.2 µM and > 1 µM with TK-10 renal. For the same compound, the GI50 in the experiment with MALME-3M melanoma was 0.0949 µM and 0.729 µM; in the experiment with MDA-MB-231 breast, 3.53 µM and > 1 µM.

For `C=C1C(=O)O[C@H]2[C@H]1CC/C(COC(=O)C(=O)c1cn(C)c3ccc(Cl)cc13)=C\CC[C@@]1(C)O[C@@H]21`, the GI50 in the experiment on NCI-H522 lung was 1.24 µM; with 786-0 renal it was 1.2 µM; in the experiment on MDA-MB-435 it was 1.27 µM; in the experiment with HL-60(TB) leukemia, 1.25 µM; with OVCAR-3 ovarian it was 0.315 µM; in the experiment on PC-3 prostate, 1.41 µM. Moreover, the GI50 in the experiment with TK-10 renal is 1.42 µM; in the experiment with SF-295 CNS it was 2.88 µM; with MALME-3M melanoma it was 1.74 µM; in the experiment on MDA-MB-231 breast, 1.03 µM. Also, the TGI was determined as 2.68 µM with NCI-H522 lung; 2.53 µM with 786-0 renal; 3.13 µM in the experiment on MDA-MB-435; 4.09 µM with HL-60(TB) leukemia; 1.03 µM in the experiment on OVCAR-3 ovarian; 3.32 µM with PC-3 prostate. In addition, the TGI in the experiment with TK-10 renal was 2.98 µM; with SF-295 CNS, 10.3 µM; with MALME-3M melanoma, 4.28 µM; in the experiment with MDA-MB-231 breast, 4.3 µM.

For `COc1cc2ncn(-c3cc(O[C@@H](C)c4ccccc4Cl)c(C(N)=O)s3)c2cc1OC`, the GI50 with NCI-H522 lung was 0.434 µM; in the experiment on 786-0 renal, 4.43 µM; with MDA-MB-435, 0.146 µM; in the experiment on HL-60(TB) leukemia, 0.728 µM; in the experiment with OVCAR-3 ovarian, 0.513 µM; with PC-3 prostate it was 2.55 µM. For the same compound, the GI50 is 4.14 µM in the experiment on TK-10 renal, 1.25 µM in the experiment on SF-295 CNS, 13.7 µM in the experiment with MALME-3M melanoma and 1.19 µM with MDA-MB-231 breast. The TGI in the experiment on NCI-H522 lung is 6.51 µM; in the experiment on 786-0 renal, above 25 µM; in the experiment on MDA-MB-435, above 25 µM; in the experiment with HL-60(TB) leukemia it was 2.86 µM; in the experiment on OVCAR-3 ovarian, above 17.4 µM; in the experiment on PC-3 prostate, above 25 µM. Further, the TGI is above 23.1 µM with TK-10 renal, above 25 µM with SF-295 CNS, above 25 µM in the experiment on MALME-3M melanoma and above 25 µM with MDA-MB-231 breast.
